This is an account of results in US11845724B2, “USP30 inhibitors and uses thereof” (Vincere Biosciences, Inc., priority 2019, dated 2023).

Values joined by “and” are separate entries in the source; they are usually repeats but may differ in a detail not shown here. Identical values can stand only once. Like-named read-outs stand apart in the source and are kept apart here. A value given as a limit tells only on which side of the number the result lay.

Test [1] deals with T1, USP30 (Homo sapiens (Human), UniProt Q70CQ3). As to the kind of experiment: Dundee MALDI-TOF mass spectrometry assay (IC50). The settings on record: USP30 25 ng/μl, K48-linked diubiquitin 5.6 μM. Format: biochemical. In a few lines: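 USP30 (25 ng/μl) preincubated with compound 5 min at RT in Tris/BSA/DTT buffer, then K48-linked diubiquitin (5.6 μM) added for 45 min at RT. Stopped with 2% TFA; cleavage quantified by MALDI-TOF mass spectrometry to give IC50.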
T1 sequence (Q70CQ3 whole entry): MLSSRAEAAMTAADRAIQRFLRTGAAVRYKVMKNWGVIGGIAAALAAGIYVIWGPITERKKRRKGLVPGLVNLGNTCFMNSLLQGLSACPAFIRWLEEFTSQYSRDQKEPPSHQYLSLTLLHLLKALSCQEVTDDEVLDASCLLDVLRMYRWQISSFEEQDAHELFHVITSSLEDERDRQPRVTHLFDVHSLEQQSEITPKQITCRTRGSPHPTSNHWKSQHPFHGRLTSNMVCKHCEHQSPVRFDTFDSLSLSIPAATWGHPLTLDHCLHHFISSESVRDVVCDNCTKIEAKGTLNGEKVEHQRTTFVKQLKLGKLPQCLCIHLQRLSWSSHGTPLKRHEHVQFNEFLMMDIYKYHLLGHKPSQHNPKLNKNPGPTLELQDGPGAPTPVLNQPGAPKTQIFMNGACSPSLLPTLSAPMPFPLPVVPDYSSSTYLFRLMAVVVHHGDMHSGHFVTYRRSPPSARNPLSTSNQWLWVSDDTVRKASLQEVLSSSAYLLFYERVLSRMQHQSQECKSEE

Test [2] has as its target T1, USP30. As to the kind of experiment: Dundee MALDI-TOF mass spectrometry assay (% DUB activity remaining at 1 μM). The class given is biochemical. The settings on record: % DUB activity remaining at compound concentration of 1 μM; avg; read-out: Dundee % Activity at 1 μM (avg in vitro MS assay). The procedure: Compounds were tested in a MALDI-TOF assay based on the paper by Ritorto et al. (Ritorto et al. Screening of DUB activity and specificity by MALDI-TOF mass spectrometry. Nat. Commun. 5:4763).
USP30 (25 ng/μl) tested against K48-linked diubiquitin (5.6 μM). USP30 was diluted in a buffer containing 40 mM Tris, 0.01% BSA, 1 mM DTT and K48 in 40 mM Tris, 0.01% BSA.
The compounds were pre-incubated with the USP30 for 5 mins at room temp before the K48 dimer addition. The assay mixture was then incubated for 45 mins at room temp. The assay was stopped by the addition of TFA to a final concentration of 2% (v/v).
Acidified samples of the DUB assays were mixed with 0.5 mM 15N-ubiquitin and then with one part of 2% (v/v) TFA and one part of 2,5 DHAP matrix solution (7.6 mg of 2,5 DHAP in […] ethanol and […] of an aqueous 12 mg ml 1 diammonium hydrogen citrate). Then 250 nl of these solutions were spotted onto an MTP AnchorChip 1,536 TF and this is analysed on the Bruker rapifleX MALDI-TOF.
Table 22 presents the Dundee MALDI-TOF values expressed as % DUB activity remaining at a compound concentration of 1 μM.

For test [3], the target named is recombinant USP30 (amino acids 57-517 of the human sequence) (Homo sapiens (Human), UniProt Q70CQ3). As to the kind of experiment: In vitro USP30 biochemical assay (Ubiquitin-Rhodamine).
Chain of recombinant USP30 (amino acids 57-517 of the human sequence) (Q70CQ3 57-517): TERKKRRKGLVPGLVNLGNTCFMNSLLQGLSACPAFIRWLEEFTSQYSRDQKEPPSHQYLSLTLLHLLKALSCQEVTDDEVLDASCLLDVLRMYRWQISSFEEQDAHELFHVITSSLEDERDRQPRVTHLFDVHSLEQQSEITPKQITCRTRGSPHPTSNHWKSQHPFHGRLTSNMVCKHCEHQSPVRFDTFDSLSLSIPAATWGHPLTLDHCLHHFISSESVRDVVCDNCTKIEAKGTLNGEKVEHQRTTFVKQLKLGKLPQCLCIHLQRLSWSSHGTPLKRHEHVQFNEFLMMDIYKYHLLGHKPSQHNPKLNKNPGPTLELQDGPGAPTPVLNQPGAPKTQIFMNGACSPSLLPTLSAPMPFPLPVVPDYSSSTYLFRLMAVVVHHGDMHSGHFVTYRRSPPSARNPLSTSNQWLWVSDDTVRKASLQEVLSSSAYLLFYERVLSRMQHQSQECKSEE
Description: In vitro biochemical assay to establish the potency of compounds for USP30 inhibition: a 384-well plate assay using a fluorophore tagged substrate of USP30 was used for in vitro screening of compounds. Each compound was tested at 10 different concentrations (0.5 to 10,000 nM) in duplicate wells. Compounds were pre-incubated at 25° C. for 30 min in an assay buffer consisting of 20 mM Tris/HCl, pH8.0, 1 mM GSH, 0.01% Triton X-100, 0.03% BGG and 1.5 nM recombinant USP30 (amino acids 57-517 of the human sequence with a C-terminal 6-His tag). Following the pre-incubation, Ubiquitin-Rhodamine substrate dissolved in the assay buffer was added at the final concentration of 25 nM to each well and plates were incubated at 25° C. for an additional 75 minutes. The reaction was stopped by adding 10 mM citric acid and fluorescence was read using excitation wavelength 485 nm, emission of 535 nm. Data were analyzed using Graph Pad Prism software with a four-parameter (floating slope) fit to log concentration data to determine IC50s.
Where [4] appears, read: Dundee IC50 μM (avg in vitro MS assay).
Where [5] appears, read: avg, read-out: Dundee IC50 μM (avg in vitro MS assay).
Where [6] appears, read: USP30 IC50 μM (avg), Ubiquitin-Rhodamine substrate 25 nM, 1.5 nM recombinant USP30.

Regarding `CC(C)(C)NS(=O)(=O)c1cccc(NC(=O)[C@H](Cc2ccccc2)NC(=O)c2ccc(F)cc2)c1` [Compound I-68, (S)-N-(1-(3-(N-tert-butylsulfamoyl)phenylamino)-1-oxo-3-phenylpropan-2-yl)-4-fluorobenzamide], at USP30 [1] (setting [4]), the IC50 (as a rule, the concentration that gives 50% inhibition) is greater than 1 µM. Further, the activity at 1 µM at USP30 [2] is greater than 75%.

As for `CC[C@H](C)NS(=O)(=O)c1ccc(NC(=O)[C@H](Cc2ccccc2)NC(=O)c2ccc(F)cc2)cc1` [Compound I-28, N-((S)-1-((4-(N-((S)-sec-butyl)sulfamoyl)phenyl)amino)-1-oxo-3-phenylpropan-2-yl)-4-fluorobenzamide], the 50% inhibitory concentration (IC50) on USP30 [1] (setting [5]) was less than 0.05 µM. Besides, the activity at 1 µM at USP30 [2] fell in the range of 0 to 25%.

With `CCNS(=O)(=O)c1ccc(NC(=O)C2Cc3ccccc3CN2C(=O)c2ccc(F)cc2)cc1` (stereo not shown) [Compound I-49, N-(4-(N-ethylsulfamoyl)phenyl)-2-(4-fluorobenzoyl)-1,2,3,4-tetrahydroisoquinoline-3-carboxamide], the IC50 on USP30 [1] (setting [5]) is 1 to 10 µM. For the same molecule, on USP30 [2], the activity at 1 µM is greater than 75%.

`CC(C)(C)NC(=O)c1ccc(NC(=O)[C@H](Cc2ccccc2)NC(=O)c2ccc(F)cc2)cc1` [Compound I-29, (S)-N-tert-butyl-4-(2-(4-fluorobenzamido)-3-phenylpropanamido)benzamide]: the half-maximal inhibitory concentration (IC50) against USP30 [1] (setting [4]) was greater than 1 µM. Besides, on USP30 [2], the activity at 1 µM was greater than 75%.

For `O=C(N[C@@H](Cc1cccnc1)C(=O)Nc1ccc(S(=O)(=O)NC2COC2)cc1)c1ccc(F)cc1` [Compound I-66, (S)-4-fluoro-N-(1-(4-(N-oxetan-3-ylsulfamoyl)phenylamino)-1-oxo-3-(pyridin-3-yl)propan-2-yl)benzamide], the concentration for half-maximal inhibition (IC50) on USP30 [1] (setting [5]) lay in the range of 0.05 to 1 µM. Moreover, on USP30 [2], the activity at 1 µM fell in the range of 0 to 25%.

In the case of `CCNS(=O)(=O)c1ccc(NC(=O)C2(NC(=O)c3ccccc3)CCc3ccccc3C2)cc1` (stereo not shown) [Compound I-47, 2-benzamido-N-(4-(N-ethylsulfamoyl)phenyl)-1,2,3,4-tetrahydronaphthalene-2-carboxamide], on USP30 [1] (setting [5]), the IC50 is greater than 1 µM. Besides, at USP30 [2], the activity at 1 µM is greater than 75%.

`CC(C)(C)NS(=O)(=O)c1ccc(NC(=O)C2Cc3cccnc3N2C(=O)c2ccc(F)cc2)cc1` (stereo not shown) [Compound I-57, N-(4-(N-tert-butylsulfamoyl)phenyl)-1-(4-fluorobenzoyl)-2,3-dihydro-1H-pyrrolo[2,3-b]pyridine-2-carboxamide] came in with an IC50 on USP30 [1] (setting [4]) greater than 1 µM. Moreover, at USP30 [2], the activity at 1 µM was greater than 75%.

As to `C[C@H](NS(=O)(=O)c1ccc(NC(=O)[C@H](Cc2ccccc2)NC(=O)c2ccc(F)cc2)cc1)C1CC1` [Compound I-27, N-((S)-1-(4-(N-((S)-1-cyclopropylethyl)sulfamoyl)phenylamino)-1-oxo-3-phenylpropan-2-yl)-4-fluorobenzamide], at USP30 [1] (setting [5]), the concentration for half-maximal inhibition (IC50) is less than 0.05 µM. For the same molecule, on USP30 [2], the activity at 1 µM fell in the range of 0 to 25%.

Take `CN(C(=O)c1ccc(F)cc1)[C@@H](Cc1ccccc1)C(=O)Nc1ccc(S(=O)(=O)NC(C)(C)C)cc1` [Compound I-35, (S)-N-(1-(4-(N-tert-Butylsulfamoyl)phenylamino)-1-oxo-3-phenylpropan-2-yl)-4-fluoro-N-methylbenzamide]: the IC50 on USP30 [1] (setting [5]) is 0.05 to 1 µM; in test [3] (setting [6]) it was 0.05 to 1 µM and 1 to 10 µM. Moreover, at USP30 [2], the activity at 1 µM fell in the range of 0 to 25%.

For the molecule `CC(C)(C)NS(=O)(=O)c1ccc(NC[C@H](O)[C@H](Cc2ccccc2)NC(=O)c2ccc(F)cc2)cc1` [Compound I-41, N-((2S,3S)-4-(4-(N-tert-butylsulfamoyl)phenylamino)-3-hydroxy-1-phenylbutan-2-yl)-4-fluorobenzamide], the IC50 (on USP30 [1] (setting [5]); in test [3] (setting [6])) was 1 to 10 µM each time. For the same molecule, the activity at 1 µM on USP30 [2] fell in the range of 25 to 50%.

For the molecule `CC(C)(C)NS(=O)(=O)c1ccc(OC[C@H](Cc2ccccc2)NC(=O)c2ccc(F)cc2)cc1` [Compound I-45, (S)-N-(1-(4-(N-tert-butylsulfamoyl)phenoxy)-3-phenylpropan-2-yl)-4-fluorobenzamide], on USP30 [1] (setting [5]), the IC50 is greater than 1 µM. Further, the activity at 1 µM at USP30 [2] was greater than 75%.

Turning to `CC(C)(C)N=S(C)(=O)c1ccc(NC(=O)[C@H](Cc2ccccc2)NC(=O)c2ccc(F)cc2)cc1` (stereo partly drawn) [Compound I-17, N-((2S)-1-((4-(N-(tert-butyl)-S-methylsulfonimidoyl)phenyl)amino)-1-oxo-3-phenylpropan-2-yl)-4-fluorobenzamide], the IC50 at USP30 [1] (setting [4]) is greater than 1 µM. For the same molecule, the activity at 1 µM on USP30 [2] was greater than 75%.

For the molecule `C[C@@H](NS(=O)(=O)c1ccc(NC(=O)[C@H](Cc2ccccc2)NC(=O)c2ccc(F)cc2)cc1)C(F)(F)F` [Compound I-26, 4-fluoro-N-((S)-1-oxo-3-phenyl-1-(4-(N-((R)-1,1,1-trifluoropropan-2-yl)sulfamoyl)phenylamino)propan-2-yl)benzamide], the IC50 on USP30 [1] (setting [5]) was less than 0.05 µM; in test [3] (setting [6]) it was 0.05 to 1 µM. Also, the activity at 1 µM at USP30 [2] fell in the range of 0 to 25%.

As to `CC(C)(C)NC(c1ccc(NC(=O)[C@H](Cc2ccccc2)NC(=O)c2ccc(F)cc2)cc1)C(F)(F)F` (stereo partly drawn) [Compound I-18, N-((2S)-1-(4-(1-(tert-butylamino)-2,2,2-trifluoroethyl)phenylamino)-1-oxo-3-phenylpropan-2-yl)-4-fluorobenzamide], the IC50 against USP30 [1] (setting [4]) was greater than 10 µM; in test [3] (read-out: USP30 IC50 μM (avg), Ubiquitin-Rhodamine substrate 25 nM, 1.5 nM recombinant USP30), greater than 10 µM. Also, the activity at 1 µM on USP30 [2] was in the range of 50 to 75%.

For the molecule `CN1CC(NS(=O)(=O)c2ccc(NC(=O)[C@H](Cc3ccccc3)NC(=O)c3ccc(F)cc3)cc2)C1` [Compound I-65, (S)-4-fluoro-N-(1-(4-(N-(1-methylazetidin-3-yl)sulfamoyl)phenylamino)-1-oxo-3-phenylpropan-2-yl)benzamide], the 50% inhibitory concentration (IC50) (at USP30 [1] (setting [5]); in test [3] (setting [6])) was 0.05 to 1 µM each time. Further, the activity at 1 µM on USP30 [2] fell in the range of 0 to 25%.

On USP30 [1] (setting [4]), `CC(C)(C)NS(=O)(=O)c1ccc(NC(=O)C2(NC(=O)c3ccc(F)cc3)CC2c2ccccc2)cc1` (racemic) [Compound I-82, racemic-N-(Z)-(1-(4-(N-tert-butylsulfamoyl)phenylcarbamoyl)-2-phenylcyclopropyl)-4-fluorobenzamide] yielded an IC50 greater than 1 µM. The activity at 1 µM on USP30 [2] was greater than 75%.

In the case of `CC(C)(C)NS(=O)(=O)c1ccc(NC(=O)C2(NC(=O)c3ccc(F)cc3)Cc3ccccc3C2)cc1` [Compound I-19, N-(4-(N-tert-butylsulfamoyl)phenyl)-2-(4-fluorobenzamido)-2,3-dihydro-1H-indene-2-carboxamide], the IC50 (on USP30 [1] (setting [5]); in test [3] (setting [6])) was 0.05 to 1 µM in each case. Besides, the activity at 1 µM at USP30 [2] lay in the range of 25 to 50%.

As for `CC(C)(C)NS(=O)(=O)c1ccc(NC[C@H](Cc2ccccc2)NC(=O)c2ccc(F)cc2)cc1` [Compound I-44, (S)-N-(1-(4-(N-tert-butylsulfamoyl)phenylamino)-3-phenylpropan-2-yl)-4-fluorobenzamide], the concentration for half-maximal inhibition (IC50) at USP30 [1] (setting [5]) was greater than 1 µM. Besides, on USP30 [2], the activity at 1 µM is greater than 75%.

For `CC(C)(C)NS(=O)(=O)c1ccc(NC(=O)C2(NC(=O)c3ccccc3)CCc3ccccc3C2)cc1` (stereo not shown) [Compound I-48, 2-benzamido-N-(4-(N-tert-butylsulfamoyl)phenyl)-1,2,3,4-tetrahydronaphthalene-2-carboxamide], the IC50 on USP30 [1] (setting [5]) is greater than 1 µM. The activity at 1 µM at USP30 [2] is greater than 75%.

On to `CC(C)(C)NS(=O)(=O)c1ccc(NC(=O)[C@H](Cc2ccccc2)OCc2ccc(F)cc2)cc1` [Compound I-46, (S)-N-(4-(N-tert-butylsulfamoyl)phenyl)-2-(4-fluorobenzyloxy)-3-phenylpropanamide], for which the half-maximal inhibitory concentration (IC50) on USP30 [1] (setting [5]) is greater than 1 µM. Also, the activity at 1 µM at USP30 [2] is greater than 75%.

In the case of `CC(C)(C)NS(=O)(=O)c1ccc(NC[C@@H](O)[C@H](Cc2ccccc2)NC(=O)c2ccc(F)cc2)cc1` [Compound I-42, N-((2S,3R)-4-(4-(N-tert-butylsulfamoyl)phenylamino)-3-hydroxy-1-phenylbutan-2-yl)-4-fluorobenzamide], the IC50 at USP30 [1] (setting [5]) lay within 1 to 10 µM. On USP30 [2], the activity at 1 µM was greater than 75%.

For the molecule `CN(C(=O)[C@H](Cc1ccccc1)NC(=O)c1ccc(F)cc1)c1ccc(S(=O)(=O)NC(C)(C)C)cc1` [Compound I-36, (S)-N-(1-((4-(N-tert-butylsulfamoyl)phenyl)(methyl)amino)-1-oxo-3-phenylpropan-2-yl)-4-fluorobenzamide], the IC50 at USP30 [1] (setting [5]) was greater than 1 µM. The activity at 1 µM on USP30 [2] is greater than 75%.

Consider `CC(C)(C)N[S+]([O-])c1ccc(NC(=O)[C@H](Cc2ccccc2)NC(=O)c2ccc(F)cc2)cc1` (stereo partly drawn) [Compound I-15, N-((2S)-1-(4-(N-tert-Butylsulfinamoyl)phenylamino)-1-oxo-3-phenylpropan-2-yl)-4-fluorobenzamide], for which the half-maximal inhibitory concentration (IC50) at USP30 [1] (setting [5]) was in the range of 0.05 to 1 µM. In addition, the activity at 1 µM on USP30 [2] was in the range of 25 to 50%.
